# Results taken from ChEMBL document CHEMBL6120977, “Structure-Affinity-Pharmacokinetics Relationships of Novel 18F-Labeled 1,4-Diazepane Derivatives for Orexin 1 Receptor Imaging” (J Med Chem, 2024).
# Columns and labels:
# [1] = target: T1, Orexin/Hypocretin receptor type 1 (Homo sapiens, UniProt O43613); test: Displacement of […]5IBOM from OX1R (unknown origin) transfected in CHO cells assessed as inhibition constant incubated for 1.5 hrs by automated gamma-counter analysis; assay type: cell-based
# T1 sequence (O43613 whole entry): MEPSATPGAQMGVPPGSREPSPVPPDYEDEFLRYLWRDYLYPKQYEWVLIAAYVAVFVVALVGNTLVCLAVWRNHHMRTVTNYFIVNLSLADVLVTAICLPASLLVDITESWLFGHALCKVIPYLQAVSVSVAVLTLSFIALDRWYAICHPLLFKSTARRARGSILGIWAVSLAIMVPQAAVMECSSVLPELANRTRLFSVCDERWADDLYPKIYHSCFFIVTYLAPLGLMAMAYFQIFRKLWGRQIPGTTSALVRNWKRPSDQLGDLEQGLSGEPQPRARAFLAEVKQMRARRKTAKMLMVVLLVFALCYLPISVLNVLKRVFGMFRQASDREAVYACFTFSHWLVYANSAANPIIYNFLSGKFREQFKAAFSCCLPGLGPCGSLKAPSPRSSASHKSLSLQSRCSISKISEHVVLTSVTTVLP
# [2] = Selectivity ratio of Ki for OX2R (unknown origin) transfected in CHO cells to Ki for OX1R (unknown origin) transfected in CHO cells; assay type: cell-based
# [3] = target: T2, Orexin receptor type 2 (Homo sapiens, UniProt O43614); test: Displacement of […]5IBOM from OX2R (unknown origin) transfected in CHO cells assessed as inhibition constant incubated for 1.5 hrs by automated gamma-counter analysis; assay type: cell-based
# T2 sequence (O43614 whole entry): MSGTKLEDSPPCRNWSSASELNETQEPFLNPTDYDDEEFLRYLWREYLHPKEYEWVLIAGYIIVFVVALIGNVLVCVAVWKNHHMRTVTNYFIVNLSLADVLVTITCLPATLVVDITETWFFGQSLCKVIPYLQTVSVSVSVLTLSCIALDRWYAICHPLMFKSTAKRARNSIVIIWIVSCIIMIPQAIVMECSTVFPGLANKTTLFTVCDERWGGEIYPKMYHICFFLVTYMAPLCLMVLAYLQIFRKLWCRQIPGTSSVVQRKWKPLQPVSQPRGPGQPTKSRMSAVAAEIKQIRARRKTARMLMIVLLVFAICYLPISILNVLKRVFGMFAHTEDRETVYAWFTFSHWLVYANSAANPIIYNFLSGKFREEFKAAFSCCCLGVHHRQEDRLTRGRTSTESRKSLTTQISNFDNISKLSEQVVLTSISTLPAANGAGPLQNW
# [4] = Biodistribution in male ddY mouse blood administered intravenously and measured at 10 mins postinjection by gamma counter analysis; assay type: ADME, organism-based; conditions: in vivo, iv
# [5] = Biodistribution in male ddY mouse lung administered intravenously and measured at 30 mins postinjection by gamma counter analysis; assay type: ADME, organism-based; conditions: in vivo, iv, 0.5 h
# [6] = Biodistribution in male ddY mouse brain administered intravenously and measured at 30 mins postinjection by gamma counter analysis; assay type: ADME, organism-based; conditions: in vivo, iv, 0.5 h
# [7] = Biodistribution in male ddY mouse bone administered intravenously and measured at 60 mins postinjection by gamma counter analysis; assay type: ADME, organism-based, Bone element; conditions: in vivo, iv, 1 h
# [8] = Biodistribution in male ddY mouse blood administered intravenously and measured at 2 mins postinjection by gamma counter analysis; assay type: ADME, organism-based; conditions: in vivo, iv
# [9] = Biodistribution in male ddY mouse heart administered intravenously and measured at 10 mins postinjection by gamma counter analysis; assay type: ADME, organism-based; conditions: in vivo, iv
# [10] = Biodistribution in male ddY mouse pancreas administered intravenously and measured at 2 mins postinjection by gamma counter analysis; assay type: ADME, organism-based; conditions: in vivo, iv
# [11] = Biodistribution in male ddY mouse intestine administered intravenously and measured at 30 mins postinjection by gamma counter analysis; assay type: ADME, organism-based; conditions: in vivo, iv, 0.5 h
# [12] = Biodistribution in male ddY mouse brain administered intravenously and measured at 60 mins postinjection by gamma counter analysis; assay type: ADME, organism-based; conditions: in vivo, iv, 1 h
# [13] = Biodistribution in male ddY mouse pancreas administered intravenously and measured at 60 mins postinjection by gamma counter analysis; assay type: ADME, organism-based; conditions: in vivo, iv, 1 h
# [14] = Biodistribution in male ddY mouse spleen administered intravenously and measured at 60 mins postinjection by gamma counter analysis; assay type: ADME, organism-based; conditions: in vivo, iv, 1 h
# [15] = Biodistribution in male ddY mouse stomach administered intravenously and measured per organ at 30 mins postinjection by gamma counter analysis; assay type: ADME, organism-based; conditions: in vivo, iv, 0.5 h
# [16] = Biodistribution in male ddY mouse blood administered intravenously and measured at 60 mins postinjection by gamma counter analysis; assay type: ADME, organism-based; conditions: in vivo, iv, 1 h
# [17] = Biodistribution in male ddY mouse intestine administered intravenously and measured at 60 mins postinjection by gamma counter analysis; assay type: ADME, organism-based; conditions: in vivo, iv, 1 h
# [18] = Biodistribution in male ddY mouse heart administered intravenously and measured at 30 mins postinjection by gamma counter analysis; assay type: ADME, organism-based; conditions: in vivo, iv, 0.5 h
# [19] = Biodistribution in male ddY mouse heart administered intravenously and measured at 2 mins postinjection by gamma counter analysis; assay type: ADME, organism-based; conditions: in vivo, iv
# [20] = Biodistribution in male ddY mouse liver administered intravenously and measured at 60 mins postinjection by gamma counter analysis; assay type: ADME, organism-based; conditions: in vivo, iv, 1 h
# [21] = Biodistribution in male ddY mouse kidney administered intravenously and measured at 2 mins postinjection by gamma counter analysis; assay type: ADME, organism-based; conditions: in vivo, iv
# [22] = Biodistribution in male ddY mouse kidney administered intravenously and measured at 30 mins postinjection by gamma counter analysis; assay type: ADME, organism-based; conditions: in vivo, iv, 0.5 h
# [23] = Biodistribution in male ddY mouse brain administered intravenously and measured at 10 mins postinjection by gamma counter analysis; assay type: ADME, organism-based; conditions: in vivo, iv
# [24] = Biodistribution in male ddY mouse stomach administered intravenously and measured per organ at 2 mins postinjection by gamma counter analysis; assay type: ADME, organism-based; conditions: in vivo, iv
# [25] = Biodistribution in male ddY mouse intestine administered intravenously and measured at 10 mins postinjection by gamma counter analysis; assay type: ADME, organism-based; conditions: in vivo, iv
# [26] = Biodistribution in male ddY mouse brain administered intravenously and measured at 2 mins postinjection by gamma counter analysis; assay type: ADME, organism-based; conditions: in vivo, iv
# [27] = Biodistribution in male ddY mouse spleen administered intravenously and measured at 2 mins postinjection by gamma counter analysis; assay type: ADME, organism-based; conditions: in vivo, iv
# [28] = Biodistribution in male ddY mouse lung administered intravenously and measured at 10 mins postinjection by gamma counter analysis; assay type: ADME, organism-based; conditions: in vivo, iv
# [29] = Biodistribution in male ddY mouse kidney administered intravenously and measured at 10 mins postinjection by gamma counter analysis; assay type: ADME, organism-based; conditions: in vivo, iv
# [30] = Biodistribution in male ddY mouse pancreas administered intravenously and measured at 30 mins postinjection by gamma counter analysis; assay type: ADME, organism-based; conditions: in vivo, iv, 0.5 h
# [31] = Biodistribution in male ddY mouse stomach administered intravenously and measured per organ at 10 mins postinjection by gamma counter analysis; assay type: ADME, organism-based; conditions: in vivo, iv
# [32] = Biodistribution in male ddY mouse stomach administered intravenously and measured per organ at 60 mins postinjection by gamma counter analysis; assay type: ADME, organism-based; conditions: in vivo, iv, 1 h
# [33] = Biodistribution in male ddY mouse pancreas administered intravenously and measured at 10 mins postinjection by gamma counter analysis; assay type: ADME, organism-based; conditions: in vivo, iv
# [34] = Biodistribution in male ddY mouse spleen administered intravenously and measured at 30 mins postinjection by gamma counter analysis; assay type: ADME, organism-based; conditions: in vivo, iv, 0.5 h
# [35] = Biodistribution in male ddY mouse kidney administered intravenously and measured at 60 mins postinjection by gamma counter analysis; assay type: ADME, organism-based; conditions: in vivo, iv, 1 h
# [36] = Biodistribution in male ddY mouse liver administered intravenously and measured at 30 mins postinjection by gamma counter analysis; assay type: ADME, organism-based; conditions: in vivo, iv, 0.5 h
# [37] = Biodistribution in male ddY mouse bone administered intravenously and measured at 30 mins postinjection by gamma counter analysis; assay type: ADME, organism-based, Bone element; conditions: in vivo, iv, 0.5 h
# [38] = Biodistribution in male ddY mouse intestine administered intravenously and measured at 2 mins postinjection by gamma counter analysis; assay type: ADME, organism-based; conditions: in vivo, iv
# [39] = Biodistribution in male ddY mouse lung administered intravenously and measured at 2 mins postinjection by gamma counter analysis; assay type: ADME, organism-based; conditions: in vivo, iv
# [40] = Biodistribution in male ddY mouse spleen administered intravenously and measured at 10 mins postinjection by gamma counter analysis; assay type: ADME, organism-based; conditions: in vivo, iv
# [41] = Biodistribution in male ddY mouse lung administered intravenously and measured at 60 mins postinjection by gamma counter analysis; assay type: ADME, organism-based; conditions: in vivo, iv, 1 h
# [42] = Biodistribution in male ddY mouse bone administered intravenously and measured at 10 mins postinjection by gamma counter analysis; assay type: ADME, organism-based, Bone element; conditions: in vivo, iv
# [43] = Biodistribution in male ddY mouse liver administered intravenously and measured at 2 mins postinjection by gamma counter analysis; assay type: ADME, organism-based; conditions: in vivo, iv
# [44] = Biodistribution in male ddY mouse bone administered intravenously and measured at 2 mins postinjection by gamma counter analysis; assay type: ADME, organism-based, Bone element; conditions: in vivo, iv
# [45] = Biodistribution in male ddY mouse liver administered intravenously and measured at 10 mins postinjection by gamma counter analysis; assay type: ADME, organism-based; conditions: in vivo, iv
# [46] = Biodistribution in male ddY mouse blood administered intravenously and measured at 30 mins postinjection by gamma counter analysis; assay type: ADME, organism-based; conditions: in vivo, iv, 0.5 h
# [47] = Biodistribution in male ddY mouse heart administered intravenously and measured at 60 mins postinjection by gamma counter analysis; assay type: ADME, organism-based; conditions: in vivo, iv, 1 h
structure (smiles),measurement,setting,value
Cc1ccc2nc(N3CCCN(C(=O)c4cc(F)ccc4-n4nccn4)[C@@H](C)C3)sc2c1,Ki,[1],7.46 nM
same,Ratio Ki,[2],3.5
same,Ki,[3],26.1 nM
Cc1ccc(-n2nccn2)c(C(=O)N2CCCN(c3nc4ccc(F)cc4o3)C[C@@H]2C)c1,Ki,[1],17.7 nM
same,Ratio Ki,[2],8.8
same,Ki,[3],156 nM
C[C@H]1CN(c2nc3ccc(F)cc3s2)CCCN1C(=O)c1cc([18F])ccc1-n1nccn1,Drug uptake,[4],3.05 % ID/g
same,Drug uptake,[5],1.11 % ID/g
same,Drug uptake,[6],0.29 % ID/g
same,Drug uptake,[7],1.24 % ID/g
same,Drug uptake,[8],4.79 % ID/g
same,Drug uptake,[9],2.48 % ID/g
same,Drug uptake,[10],5.3 % ID/g
same,Drug uptake,[11],15.4 % ID/g
same,Drug uptake,[12],0.09 % ID/g
same,Drug uptake,[13],0.36 % ID/g
same,Drug uptake,[14],0.21 % ID/g
same,Drug uptake,[15],1.18 %ID
same,Drug uptake,[16],0.55 % ID/g
same,Drug uptake,[17],30.5 % ID/g
same,Drug uptake,[18],0.67 % ID/g
same,Drug uptake,[19],6.04 % ID/g
same,Drug uptake,[20],12.6 % ID/g
same,Drug uptake,[21],7.83 % ID/g
same,Drug uptake,[22],2.32 % ID/g
same,Drug uptake,[23],1.33 % ID/g
same,Drug uptake,[24],1.03 %ID
same,Drug uptake,[25],8.38 % ID/g
same,Drug uptake,[26],2.64 % ID/g
same,Drug uptake,[27],2.15 % ID/g
same,Drug uptake,[28],3.39 % ID/g
same,Drug uptake,[29],4.37 % ID/g
same,Drug uptake,[30],0.56 % ID/g
same,Drug uptake,[31],0.98 %ID
same,Drug uptake,[32],2.13 %ID
same,Drug uptake,[33],2.88 % ID/g
same,Drug uptake,[34],0.42 % ID/g
same,Drug uptake,[35],0.88 % ID/g
same,Drug uptake,[36],20.4 % ID/g
same,Drug uptake,[37],0.76 % ID/g
same,Drug uptake,[38],2.93 % ID/g
same,Drug uptake,[39],6 % ID/g
same,Drug uptake,[40],1.77 % ID/g
same,Drug uptake,[41],0.61 % ID/g
same,Drug uptake,[42],1.18 % ID/g
same,Drug uptake,[43],11.5 % ID/g
same,Drug uptake,[44],1.5 % ID/g
same,Drug uptake,[45],27.5 % ID/g
same,Drug uptake,[46],1.1 % ID/g
same,Drug uptake,[47],0.42 % ID/g
